From patent US12528741B2, “Compositions for controlling microbially induced concrete corrosion” (The Regents of the University of Colorado, priority 2020, dated 2026) come the findings set out here.

Structures are written as SMILES. A value given as a limit tells only on which side of the number the result lay.

For assay [1], the system named is Acidithiobacillus spp. enrichments from sewer crown biofilm extract. Nature of the assay: metal inhibition in liquid media (pH monitoring and cell counts of sewer enrichments). In kind it is cell-based. Particulars: for cell density where pH dropped: average, aliquots when pH reached 2. Here is the method: FIGS. 4A-4E are graphs showing pH of enrichments including different levels of copper, cobalt, and silver, alone and in combinations. FIG. 4A: Cu^2+, FIG. 4B: Ag+, FIG. 4C: Cu/Ag in combination at a ratio 2:1, FIG. 4D: Co^2+, and FIG. 4E: Cu/Co in combination at a ratio 1:1. Enrichments were inoculated with 150 μL of biofilm extract from a corroded site and dominated by Acidithiobacillus spp. (>95% relative abundance).
FIGS. 5A-5E are graphs showing cell densities (cells/mL) observed in sewer sourced enrichment cultures including copper, cobalt and silver, alone and in combinations. FIG. 5A: Cu^2+, FIG. 5B: Ag^+, FIG. 5C: Cu^2+/Ag^+ in combination at a ratio 2:1, FIG. 5D: Co^2+, and FIG. 5E: Cu^2+/Co^2+ in combination at a ratio 1:1. Light grey bars indicate enrichment cultures where pH dropped below 2. Dark grey bars indicate batches where pH approached neutrality. (n=3).
The pH was monitored and used as an indicator for significant acidophilic SOB activity (FIGS. 4A-4E). Thiobacillus media, without any metal addition, was used as control for comparative analysis. […] Above 40 mg Cu/L, no pH depression was observed; in contrast, pH increased and plateaued at values ranging between 6.5 and 6.7. […] Where only cobalt and silver were used, all challenges indicated some evidence of acidophilic activity.
Combinations of metals were also studied, including Cu/Ag and Cu/Co at mass ratios of 2:1 and 1:1, respectively. […] Thresholds for pH were also observed above 10 mg Cu/L and 10 mg Co/L, where copper and cobalt were combined. This challenge was monitored over 30 days, indicating significant acidophilic activity after […] of incubation.
All metal species used for the challenges were based on nitrate salts. Therefore, inhibition in the presence of counter ions, was also monitored. Challenges with increasing NO3 concentrations (up to 200 mg NO3/L) where prepared with NaNO3. All challenges indicated acidophilic activity and no lag effect was ever observed.
Aliquots for cell quantification and genetic analyses were extracted from each experiment when pH reached 2. If no pH drop was observed, aliquots were extracted after 30 days of incubation. FIGS. 5A-5E illustrate the observed cell densities for all tests.
The inhibitory effects and minimum inhibitory concentration of Cu and Co were further assessed on mixed acidophilic cultures in a liquid format. Silver (Ag) was also included based on its literature history as broad-spectrum inhibitory metal. As for the solid inhibition assays, the results presented in this study support the hypothesis that different metal may ions have markedly different inhibitory potential against Acidithiobacillus spp. extracted from sewer crowns. […] In thiosulfate-based media, stationary phase for Acidithiobacillus cultures was reached 8 days after inoculation. The relative duration of experiments highlighted metal-induced lag phases from stable inhibitory concentrations. MICs clearly emerged for Cu alone (50 mg Cu/L), and in mixtures of Cu/Ag (50 mg/L and 25 mg/L) and Cu/Co (15 mg/L and 15 mg/L). […] No inhibitory synergism was observed when mixing Cu and Ag at a 2:1 ratio, when compared to any individual metal alone. However, synergistic inhibition was observed when Cu and Co were present at a 1:1 ratio. […] The literature is tenuous on this topic.

In assay [2] the test system is sulfur oxidizing bacteria isolated from a corroding sewer (Acidithiobacillus spp.). In words: modified Kirby-Bauer diffusion susceptibility test, metal-laden PAC on thiosulfate agar (solid media). In kind it is cell-based, Acidithiobacillus thiooxidans. Particulars: average. From the text: Bacterial cell abundance on the different areas of the plate surfaces were quantified using the epifluorescence microscopy methods known in the art. Areas selected for representative analysis were located in the center of each inhibition zone and the dispersed colonies area, and 10 mm into the bacterial monolayer.
Acidithiobacillus spp. response to metal mixtures is limited, however, the synergy of binary and ternary metal solutions have been described. […] The classic Kirby-Bauer antibiotic sensitivity test was adopted to assess diffusion inhibition of Acidithiobacillus thiooxidans growing on agar surfaces, in a longitudinal format.

Assay [3] concerns Acidithiobacillus spp. In words: 16S rRNA gene analysis of metal-exposed enrichment cultures. Particulars: below 40 mg Cu/L. In kind it is cell-based. From the text: Cu and Cu/Ag mixtures were chosen to investigate the microbial communities under conditions where a pH threshold was observed. 16S rRNA gene analysis of 17 samples generated over 4 million sequences, classified in 611 operational taxonomic units (OTUs). After rarefaction analysis, the median Good's coverage was >99.9%, indicating enough sequencing data to confidently describe the diversity within these samples. Abundant OTUs consistently included 5 bacteria genera (FIGS. 6A-6B). Samples with metal concentration below the acidophilic inhibition threshold (40 mg Cu/L) indicated bacterial communities were dominated by Acidithiobacillus spp. […] When copper and silver were both present, Acidithiobacillus represented the dominant genus below the concentrations of 40 mg Cu/L and 20 mg Ag/L. The same genus represented less than 1% in batches above these concentrations. Following the same pattern as in the presence of Cu alone, the enrichments were also dominated by Burkholderia and Ralstonia spp. with significant presence of Sphingomonas spp., Leifsonia spp., Methylobacterium spp., and Microbacteriaceae spp. (when Cu ≥40 mg/L).

For the molecule `O=[N+]([O-])[O-].[Na+]` [NaNO3, reference compound], the “highest NO3 concentration still showing acidophilic activity, no lag” value in assay [1] (counter ion challenge) is reported as no less than 200 mg NO3/L.
In the case of `[Cd]` [Cd, cadmium], in assay [2], the “metal normalized inhibition length (Cd)” value was 0.74 cm·(mg Cd/L)^−1.
In the case of `[Cu+2]` [Cu, copper], the “metal normalized inhibition length (Cu)” value in assay [2] (agar, 10 days, pH below 3, Cu alone or co-loaded with Co on PAC) is 2.36 cm·(mg Cu/L)^−1. In addition, the “MIC, Cu” value in assay [1] (30 days, Cu alone or in Cu/Ag 2:1, Cu/Co 1:1) came to 50 µg/mL. The “cell density where pH did not drop” value in assay [1] (aliquots after 30 days) is 1.11×10^9 cells/mL. Further, the “cell density where pH dropped” value in assay [1] is on record as 1.06×10^8 cells/mL. Further, the “minimum inhibitory concentration (MIC) for acidophilic growth” value in assay [1] (no significant pH drop after 30 days, Cu alone) was 50 mg Cu/L. Moreover, the “endpoint pH of challenges at or below threshold” value in assay [1] (up to 40 mg Cu/L) is less than 2 pH. The “Acidithiobacillus relative abundance below threshold” value in assay [3] was greater than 99%.
`[Co+2]` [Co, cobalt]: in assay [2] (Co alone or co-loaded with Cu on PAC), the “metal normalized inhibition length (Co)” value is recorded as 1.23 cm·(mg Co/L)^−1. In addition, in assay [1] (30 days, Co alone or in Cu/Co), the “MIC, Co” value is greater than 50 µg/mL. For the same molecule, the “threshold Co concentration for pH depression” value in assay [1] (Co alone (highest tested) or Cu/Co 1:1) is listed as no less than 50 mg Co/L. Besides, in assay [1], the “cell density where pH dropped” value was 3.81×10^8 cells/mL.
`[Ni]` [Ni, nickel]: the “metal normalized inhibition length (Ni)” value in assay [2] is on record as 0.28 cm·(mg Ni/L)^−1.
`[Ag]` [Ag, silver]: the “MIC, Ag” value in assay [1] (30 days, Ag alone (highest tested) or in Cu/Ag) is greater than 75 µg/mL. In addition, the “threshold Ag concentration for pH depression” value in assay [1] (Ag alone (highest tested) or Cu/Ag 2:1) is on record as no less than 75 mg Ag/L. In addition, in assay [1], the “cell density where pH dropped” value was 1.73×10^8 cells/mL.
In the case of `[Zn]` [Zn, zinc], in assay [2], the “metal normalized inhibition length (Zn)” value was 0.14 cm·(mg Zn/L)^−1.
